Experimental data from US10870639B2, “Pyrimidine compounds and pharmaceutical compositions for preventing or treating cancers including the same” (HANMI PHARM. CO., LTD., priority 2018, dated 2020).

Columns and labels:
[1] = Pharmacokinetic profile in mice (p.o. and i.v.); assay type: in vivo; set-up: AUC: concentration or dose not given beside the values; conditions: mouse, plasma; for AUC: LC-MS/MS, non-compartment analysis, read-out: Area under the curve (AUC) of mice; for bioavailability: po, BA=(AUC p.o./AUC i.v.)×(Dose i.v./Dose p.o.)×100
Method: After test substances were formulated by using the selected solvents, they were administered orally (p.o.) and intravenously (iv) once for each and a certain amount of blood was taken at a predetermined time, and plasma was isolated from the blood and a concentration analysis was performed thereon by LC-MS/MS. The AUC (drug concentration and an area under the curve) was calculated according to the linear-log trapezoidal summation formula by using the non-compartment analysis of the WinNonlin program through the plasma concentration curves over time. The bioavailability (BA) was calculated by applying the calculated AUC value to the following formula. BA (%)=(AUC p.o./AUC i.v.)×(Dose i.v./Dose p.o.)×100

FLT3 WT = FLT3 WT (Homo sapiens (Human), UniProt P36888); assay: LanthaScreen kinase binding assay, FLT3 WT; conditions: kinase tracer-236, 50 nM to 0.05 nM
Method: (§2) The inhibitory activity of some of the compounds described above against FLT3-ITD, FLT3 wild type (WT), VEGFR2 (KDR), and SYK kinase was measured.
(§3) This experiment was carried out on a 384-well plate in conditions including 50 mM HEPES pH 7.5, 0.01% BRIJ-35, 10 mM MgCl2, 1 mM EGTA, and 1% DMSO.

FLT3 ITD = FLT3 ITD (Homo sapiens, UniProt P36888, ITD); assay: LanthaScreen kinase binding assay, FLT3 ITD
Method: as §2, §3

MOLM-13 = assay: Cell growth inhibition (MTS), MOLM-13; assay type: cell-based; conditions: Homo sapiens, MOLM-13, 72 h, incubation three days
Method: (§1) The human acute myelogenous leukemia […] cell line MOLM-13 (DSMZ no. ACC 554) was incubated in RPM11640 medium supplemented with 20% heat-inactivated FBS at a temperature of 37° C. The incubated cell line was prepared in an amount of 2.0×10^4 cells/100 μL, and then plated on a 96-well plate. The RPMI1640 medium was serially diluted with the test compounds at a concentration in a range of 1 μM to 0.01 nM at a ratio of 1:10. Subsequently, incubation was performed thereon for three days. For the human acute myelogenous leukemia cell line MV-4-11 cell line (ATCC® CRL-9591™), the cells were incubated at a temperature of 37° C. in IMDM medium supplemented with 10% FBS. The incubated cell line was prepared in an amount of 2×10^4 cells/100 μL, and then plated on a 96-well plate. The IMDM medium was treated with cascade dilution of three test compounds at a concentration in a range of 1 μM to 0.01 nM at a rate of 1/10. Subsequently, incubation was performed thereon for three days. MTS test was performed to measure cell viability, and the growth inhibition (GI50) value of the cell line was calculated using GraphPad Prism software.

MV-4-11 = assay: Cell growth inhibition (MTS), MV-4-11; assay type: cell-based; conditions: Homo sapiens, MV4-11, 72 h, incubation three days
Method: as §1

Sequence of FLT3 ITD (P36888 whole entry, looked up, change not shown): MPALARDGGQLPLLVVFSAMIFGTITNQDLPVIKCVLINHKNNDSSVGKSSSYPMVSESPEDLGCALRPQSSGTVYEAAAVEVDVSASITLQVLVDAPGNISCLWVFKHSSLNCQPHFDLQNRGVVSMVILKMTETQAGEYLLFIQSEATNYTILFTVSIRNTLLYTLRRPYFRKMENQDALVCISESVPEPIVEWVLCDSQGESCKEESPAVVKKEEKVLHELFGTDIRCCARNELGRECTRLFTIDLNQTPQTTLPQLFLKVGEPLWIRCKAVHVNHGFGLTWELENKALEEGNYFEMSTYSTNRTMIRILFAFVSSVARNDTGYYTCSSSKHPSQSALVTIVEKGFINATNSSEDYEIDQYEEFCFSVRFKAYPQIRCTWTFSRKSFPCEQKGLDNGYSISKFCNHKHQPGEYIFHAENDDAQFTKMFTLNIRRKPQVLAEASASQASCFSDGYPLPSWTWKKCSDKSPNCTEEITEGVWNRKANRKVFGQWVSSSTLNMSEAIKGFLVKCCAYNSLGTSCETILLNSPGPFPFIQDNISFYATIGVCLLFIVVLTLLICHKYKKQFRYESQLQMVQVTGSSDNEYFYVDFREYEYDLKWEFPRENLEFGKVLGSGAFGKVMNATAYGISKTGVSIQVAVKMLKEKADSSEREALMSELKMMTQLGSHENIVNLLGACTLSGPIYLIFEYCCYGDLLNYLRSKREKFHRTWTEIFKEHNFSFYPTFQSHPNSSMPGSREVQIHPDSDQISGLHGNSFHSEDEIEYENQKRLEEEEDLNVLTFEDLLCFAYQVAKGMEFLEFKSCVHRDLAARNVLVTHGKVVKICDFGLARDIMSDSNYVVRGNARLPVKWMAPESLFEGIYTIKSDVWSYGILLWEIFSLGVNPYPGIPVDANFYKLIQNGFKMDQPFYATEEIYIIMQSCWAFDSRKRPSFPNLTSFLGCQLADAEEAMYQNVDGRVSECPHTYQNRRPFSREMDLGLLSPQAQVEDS
Sequence of FLT3 WT (P36888 27-993): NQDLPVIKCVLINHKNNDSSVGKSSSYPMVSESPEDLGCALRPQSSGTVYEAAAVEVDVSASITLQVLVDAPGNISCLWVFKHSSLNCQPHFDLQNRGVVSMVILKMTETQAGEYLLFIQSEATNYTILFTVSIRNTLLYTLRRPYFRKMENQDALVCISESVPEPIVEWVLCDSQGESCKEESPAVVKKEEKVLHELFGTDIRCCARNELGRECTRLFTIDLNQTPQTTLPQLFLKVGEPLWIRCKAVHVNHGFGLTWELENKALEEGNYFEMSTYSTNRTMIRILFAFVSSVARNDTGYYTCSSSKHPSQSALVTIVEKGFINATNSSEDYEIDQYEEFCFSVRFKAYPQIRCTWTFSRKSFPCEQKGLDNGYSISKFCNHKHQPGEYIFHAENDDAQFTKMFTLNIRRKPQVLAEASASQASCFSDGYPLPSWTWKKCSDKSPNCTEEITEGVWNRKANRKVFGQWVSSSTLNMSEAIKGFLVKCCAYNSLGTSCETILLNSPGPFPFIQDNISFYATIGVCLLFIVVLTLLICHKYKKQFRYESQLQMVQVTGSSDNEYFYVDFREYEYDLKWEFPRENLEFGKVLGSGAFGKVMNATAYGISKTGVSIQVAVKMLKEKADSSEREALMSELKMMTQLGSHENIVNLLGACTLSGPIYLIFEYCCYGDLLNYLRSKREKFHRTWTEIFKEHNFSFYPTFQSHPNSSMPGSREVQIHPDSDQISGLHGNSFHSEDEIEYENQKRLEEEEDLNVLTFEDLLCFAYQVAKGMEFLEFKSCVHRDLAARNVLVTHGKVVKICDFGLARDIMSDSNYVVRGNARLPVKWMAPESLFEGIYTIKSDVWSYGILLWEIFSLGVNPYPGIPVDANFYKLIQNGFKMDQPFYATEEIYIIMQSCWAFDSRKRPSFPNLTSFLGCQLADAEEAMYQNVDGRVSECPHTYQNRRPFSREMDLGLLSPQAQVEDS

Row | Structure (SMILES) | AUC [1] [ng·h/mL] | bioavailability [1] [%] | IC50 (FLT3 WT) [nM] | IC50 (FLT3 ITD) [nM] | GI50 (MOLM-13) [nM] | GI50 (MV-4-11) [nM]
1 | Cc1ccc2c(-c3nc(Nc4cc(CN5CCN(C(C)(C)CO)CC5)cc(C5CC5)c4)ncc3Cl)c[nH]c2c1 [Control Compound 5] | 1220 | 25.6 | – | – | – | –
2 | C[C@@H]1CN(Cc2cc(Nc3ncc(Cl)c(-c4c[nH]c5cc(CO)ccc45)n3)cc(C3CC3)c2)C[C@H](C)N1 [Example 16, (3-(5-chloro-2-((3-cyclopropyl-5-(((3R,5S)-3,5-dimethylpiperazine-1-yl)methyl)phenyl)amino)pyrimidine-4-yl)-1H-indole-6-yl)methanol] | – | – | 0.4 | 0.5 | – | –
3 | C[C@@H]1CN(Cc2cc(Nc3ncc(Cl)c(-c4c[nH]c5ccccc45)n3)cc(C3CC3)c2)CCN1 [Example 6, (R)-5-chloro-N-(3-cyclopropyl-5-((3-methylpiperazine-1-yl)methyl)phenyl)-4-(1H-indole-3-yl)pyrimidine-2-amine] | – | – | – | 1.8 | – | –
4 | Cc1cc2[nH]cc(-c3nc(Nc4cc(CN5C[C@@H](C)N[C@@H](C)C5)cc(C5CC5)c4)ncc3Cl)c2cc1O [Example 18, 3-(5-chloro-2-((3-cyclopropyl-5-(((3R,5S)-3,5-dimethylpiperazine-1-yl)methyl)phenyl)amino)pyrimidine-4-yl)-6-methyl-1H-indole-5-ol] | – | – | 3.7 | 13 | – | –
5 | C[C@@H]1CN(Cc2cc(Nc3ncc(Cl)c(-c4c[nH]c5cc(F)ccc45)n3)cc(C3CC3)c2)C[C@H](C)N1CCO [Example 3, 2-((2R,6S)-4-(3-((5-chloro-4-(6-fluoro-1H-indole-3-yl)pyrimidine-2-yl)amino)-5-cyclopropylbenzyl)-2,6-dimethylpiperazine-1-yl)ethane-1-ol] | – | – | – | 8.1 | 0.4 | 0.3
6 | Cc1ccc2c(-c3nc(Nc4cc(CN5C[C@@H](C)NC(C)(C)C5)cc(C5CC5)c4)ncc3Cl)c[nH]c2c1 [Example 25, (R)-5-chloro-N-(3-cyclopropyl-5-((3,3,5-trimethylpiperazine-1-yl)methyl)phenyl)-4-(6-methyl-1H-indole-3-yl)pyrimidine-2-amine] | 21800 | 21.2 | 2.3 | 20 | 8.5 | 9.3
7 | COc1cc2c(-c3nc(Nc4cc(CN5C[C@@H](C)N[C@@H](C)C5)cc(C5CC5)c4)ncc3Cl)c[nH]c2cc1C [Example 17, 5-chloro-N-(3-cyclopropyl-5-(((3R,5S)-3,5-dimethylpiperazine-1-yl)methyl)phenyl)-4-(5-methoxy-6-methyl-1H-indole-3-yl)pyrimidine-2-amine] | – | – | 9.5 | > 50 | – | –
8 | CN(C)C1CCN(c2cc(Nc3ncc(Cl)c(-c4c[nH]c5ccccc45)n3)cc(C3CC3)c2)CC1 [Control Compound 4] | 518 | 27 | – | – | – | –
9 | Cc1ccc2c(-c3nc(Nc4cc(C5CC5)cc(N5CCC(N(C)C)CC5)c4)ncc3Cl)c[nH]c2c1 [Control Compound 3] | 2270 | 27.3 | – | – | – | –
10 | C[C@@H]1CN(Cc2cc(Nc3ncc(Cl)c(-c4c[nH]c5cc(Cl)ccc45)n3)cc(C3CC3)c2)C[C@H](C)N1 [Example 2, 5-chloro-4-(6-chloro-1H-indole-3-yl)-N-(3-cyclopropyl-5-(((3R,5S)-3,5-dimethylpiperazine-1-yl)methyl)phenyl)pyrimidine-2-amine] | – | – | 1.9 | 1.5 | 6.2 | 3.5
11 | C[C@@H]1CN(Cc2cc(Nc3ncc(Cl)c(-c4c[nH]c5ccccc45)n3)cc(C3CC3)c2)C[C@H](C)N1CCO [Example 4, 2-((2R,6S)-4-(3-((5-chloro-4-(1H-indole-3-yl)pyrimidine-2-yl)amino)-5-cyclopropylbenzyl)-2,6-dimethylpiperazine-1-yl)ethane-1-ol] | 184 | 7.4 | – | 3.6 | 0.7 | 1.7
12 | Cc1ccc2c(-c3nc(Nc4cc(CN5C[C@@H](C)N[C@@H](C)C5)cc(C5CC5)c4)ncc3Cl)c[nH]c2c1O [Example 22, 3-(5-chloro-2-((3-cyclopropyl-5-(((3R,5S)-3,5-dimethylpiperazine-1-yl)methyl)phenyl)amino)pyrimidine-4-yl)-6-methyl-1H-indole-7-ol] | – | – | – | 2.4 | – | –
13 | Cc1ccc2c(c1)NC(=O)C2c1nc(Nc2cc(CN3C[C@@H](C)N[C@@H](C)C3)cc(C3CC3)c2)ncc1Cl (stereo partly drawn) [Example 19, 3-(5-chloro-2-((3-cyclopropyl-5-(((3R,5S)-3,5-dimethylpiperazine-1-yl)methyl)phenyl)amino)pyrimidine-4-yl)-6-methylindoline-2-one] | – | – | – | > 50 | – | –
14 | Cc1ccc2c(-c3nc(Nc4cc(CN5C[C@@H](C)N(O)[C@@H](C)C5)cc(C5CC5)c4)ncc3Cl)c[nH]c2c1 [Example 31, (2R,6S)-4-(3-((5-chloro-4-(6-methyl-1H-indole-3-yl)pyrimidine-2-yl)amino)-5-cyclopropylbenzyl)-2,6-dimethylpiperazine-1-ol] | – | – | – | 6.9 | – | –
15 | Cc1ccc2c(-c3nc(Nc4cc(CN5CC(C)NC(C)C5)cc(C5CC5)c4)ncc3Cl)c[nH]c2c1 (stereo not shown) [Example 10, 5-chloro-N-(3-cyclopropyl-5-((3,5-dimethylpiperazine-1-yl)methyl)phenyl)-4-(6-methyl-1H-indole-3-yl)pyrimidine-2-amine] | – | – | – | – | 5 | 2.8
16 | Cc1ccc2c(-c3nc(Nc4cc(C5CC5)cc(CN5C[C@@H](C)N[C@@H](C)C5)c4O)ncc3Cl)c[nH]c2c1 [Example 23, 2-((5-chloro-4-(6-methyl-1H-indole-3-yl)pyrimidine-2-yl)amino)-4-cyclopropyl-6-(((3R,5S)-3,5-dimethylpiperazine-1-yl)methyl)phenol] | – | – | 0.4 | > 50 | – | –
17 | Cc1ccc2c(-c3nc(Nc4cc(CN5C[C@H](CO)N[C@H](C)C5)cc(C5CC5)c4)ncc3Cl)c[nH]c2c1 [Example 26, ((2R,6R)-4-(3-((5-chloro-4-(6-methyl-1H-indole-3-yl)pyrimidine-2-yl)amino)-5-cyclopropylbenzyl)-6-methylpiperazine-2-yl)methanol] | – | – | 1.5 | 2.3 | 6.1 | 22
18 | Cc1ccc2c(-c3nc(Nc4cc(CN5C[C@@H](C)N[C@@H](C)C5)cc(C5CC5)c4)ncc3F)c[nH]c2c1 [Example 12, N-(3-cyclopropyl-5-(((3R,5S)-3,5-dimethylpiperazine-1-yl)methyl)phenyl)-5-fluoro-4-(6-methyl-1H-indole-3-yl)pyrimidine-2-amine] | – | – | 1.2 | 2.5 | 21 | 11
19 | Cc1cnc(Nc2cc(CN3C[C@@H](C)N[C@@H](C)C3)cc(C3CC3)c2)nc1-c1c[nH]c2ccccc12 [Example 13, N-(3-cyclopropyl-5-(((3R,5S)-3,5-dimethylpiperazine-1-yl)methyl)phenyl)-4-(1H-indole-3-yl)-5-methylpyrimidine-2-amine] | – | – | – | 8.7 | 2.6 | 2.1
20 | Cc1ccc2c(-c3nc(Nc4cc(CN5C[C@@H](C)N[C@H](C)C5)cc(C5CC5)c4)ncc3Cl)c[nH]c2c1 [Example 28, 5-chloro-N-(3-cyclopropyl-5-(((3R,5R)-3,5-dimethylpiperazine-1-yl)methyl)phenyl)-4-(6-methyl-1H-indole-3-yl)pyrimidine-2-amine] | – | – | – | – | 0.8 | < 0.01
21 | OCCN1CCN(Cc2cccc(Nc3ncc(Cl)c(-c4c[nH]c5ccccc45)n3)c2)CC1 [Control Compound 2] | 110 | 6.7 | – | – | – | –
22 | COc1cc(CN2CCN(CCO)CC2)cc(Nc2ncc(Cl)c(-c3c[nH]c4ccccc34)n2)c1 [Control Compound 1] | 95.5 | 6.6 | – | – | – | –
